“Also recorded” adds a separate entry of the source. Where two headings read alike, the source gives them in different places.
Key:
[1] = system: mature osteoblasts; experiment: In vitro bone formation assay (calcium deposition into bone nodules); format: cell-based, mouse; settings: for Bone formation: significance of activation/inhibition vs baseline; for Effect on bone formation activity of mature osteoblasts, in words: LA number = ng/ml lanthanum, lanthanum (III) / lanthanum (III) ion = all concentrations tested, 100 to 15,000 ng/ml, 17-estradiol 10^−10M
Method in brief: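 Calcium deposited into bone nodules during culture was released by HCl extraction and complexed with o-cresol-phthalein-complexon, read at 570 nm. Absolute calcium (mmol/L) from a calibrated standard. Lanthanum carbonate tested.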

[2] = system: osteoclast precursors in mouse bone marrow; settings: for Osteoclast differentiation: significance of activation/inhibition vs baseline
Text: A method known as mouse bone marrow culture system is the one most widely used to study osteoclast differentiation. Originally, this method was developed by Takahashi et al. (1988a). Osteoclast precursors in mouse bone marrow can be induced to form multinucleated osteoclast-like cells (MNC) in the presence of either an active metabolite of vitamin D3 (1,25(OH)2D3) or parathyroid hormone (PTH). […] They form pits on bone or dentine slices (Takahashi et al. 1988a, Hattersley and Chambers 1989, Shinar et al. 1990); they express high levels of tartrate-resistant acid phosphatase (TRAP) and calcitonin receptors (Takahashi et al. 1988b, Shinar et al. 1990); and they respond to calcitonin (Takahashi et al. 1988a) and prostaglandin E2 (Collins and Chambers 1992). Thus, the method is an ideal one with which to study both stimulators and inhibitors of osteoclast differentiation.
In the original culture system, the osteoclast formation was determined after an 8-day culture. In bone marrow, both non-adherent osteoclast precursors and stromal cells are present, the latter of which are needed to support osteoclast formation. The number of osteoclasts formed is generally determined by counting the number of TRAP-positive MNC containing at least three nuclei (Takahashi et al. 1988a).
We have modified the original assay so that we culture 1×10^6 mouse marrow cells/ml for 6 days. […] Instead of counting of the number of differentiated osteoclasts formed, we measured the amount of TRAP liberated from osteoclasts into the culture medium using a fast, simple TRAP immunoassay (Halleen et al. 1999) presentation in the Annual Meeting of the American Society for Bone and Mineral Research, Sep. 30-Oct. 4, 1999, in St. Louis, Mo., USA.
8-10-week old mice were killed with CO2. Tibia and femora were dissected free from adhering soft tissues. The bone ends were cut off with a scalpel and the marrow was flushed with α-Minimal Essential Medium (α-MEM, Gibco BRL, Paisley, UK) supplemented with 100 IU/ml penicillin and 100 μg/ml streptomycin. A 10 ml syringe with a 27 gauge needle was used for flushing. Cells were centrifuged at 600×G for 10 minutes and the cell pellet was resuspended in -MEM containing 10% fetal calf serum. Cells were allowed to attach to plastic for 2 h at 37° C. in a 5% CO2 incubator to allow removal of monocytes and macrophages. Nonadherent cells were duly removed, and the […] bone marrow cells were cultured in 24-well plates (1×10^6 cells/well=1 ml) for 6 days. Half of the media were changed at day 3 and the treatments replaced. At the end of the culture, the plates were fixed with 2% paraformaldehyde in PBS for 20 minutes. Osteoclast formation was determined by measuring TRAP activity from the culture media using the novel TRAP immunoassay (vide infra), where we use a polyclonal TRAP antiserum prepared in rabbits against purified human bone TRAP. The TRAP antibody was bound to anti-rabbit IgG coated microtiter wells (Gibco BRL, Paisley, UK), and medium TRAP was then bound to the antibody. The activity of bound TRAP was measured in sodium acetate buffer using pNPP as substrate.
In this study, the effect of the lanthanum (III) ion on osteoclast differentiation in the presence of 1,25-dihydroxyvitamin D3 was tested. The following sample groups were included: • Baseline (including vehicle) • Control (Baseline without 1,25-dihydroxyvitamin D3) • Baseline+100 ng/ml lanthanum • Baseline+500 ng/ml lanthanum • Baseline+1000 ng/ml lanthanum • Baseline+5000 ng/ml lanthanum • Baseline+15000 ng/ml lanthanum
Six replicates were included in each group, and the test was performed twice. Baseline without 1,25-dihydroxyvitamin D3 was used as a control to show the test system allows inhibition of osteoclast differentiation to be detected.

[3] = system: mouse bone marrow derived osteoprogenitor cells; experiment: In vitro osteoblast differentiation assay (cellular alkaline phosphatase); format: cell-based; settings: for Osteoblast differentiation: significance of activation/inhibition vs baseline
Method in brief: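 Mouse bone marrow osteoprogenitors cultured, then test substances added at start of estrogen-free secondary culture and at each medium change. ALP measured colorimetrically (p-nitrophenylphosphate, pH 9.7, OD 405 nm) and normalised to protein. Reported as specific ALP relative to baseline-group mean.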

With `O.O.O.O.O=C([O-])[O-].O=C([O-])[O-].O=C([O-])[O-].[La+3].[La+3]` [LA, lanthanum carbonate tetrahydrate] the Bone formation ([1]; Dose 100 ng/ml) was “++ (two characters (++ or −−) a p-value between 0.01 and 0.001)”, the Bone formation ([1]; Dose 500 ng/ml) was “+++ (three characters (+++ or −−−) a p-value <0.001)” and the Bone formation ([1]; Dose 1000 ng/ml) was “+++ (three characters (+++ or −−−) a p-value <0.001)”. For the same molecule, the Bone formation ([1]; Dose 5000 ng/ml) was “+++ (three characters (+++ or −−−) a p-value <0.001)”, the Bone formation ([1]; Dose 15000 ng/ml) was “+++ (three characters (+++ or −−−) a p-value <0.001)” and the “Effect on bone formation activity of mature osteoblasts, in words” value ([1]; listed as lanthanum (III)) was “Enhanced bone formation”. The “Effect on bone formation activity of mature osteoblasts, in words” value ([1]; listed as lanthanum (III) ion) was “highly significant activation; also recorded: powerful stimulator of the bone formation activity of mature osteoblasts”, the Osteoclast differentiation ([2]; Dose 100 ng/ml) was “− −” and the Osteoclast differentiation ([2]; Dose 500 ng/ml) was 0. For the same molecule, the Osteoclast differentiation ([2]; Dose 1000 ng/ml) was “− −”, the Osteoclast differentiation ([2]; Dose 5000 ng/ml) was “− − −” and the Osteoclast differentiation ([2]; Dose 15000 ng/ml) was “− − −”. For the same molecule, the “Effect on osteoclast differentiation, in words” value ([2]; LA number = ng/ml lanthanum, vs baseline with 1,25-dihydroxyvitamin D3) was “inhibits osteoclast differentiation”, the “Effect on osteoblast differentiation, in words” value ([3]; 100 ng/ml lanthanum) was “stimulate osteoblast differentiation” and the Osteoblast differentiation ([3]; Dose 100 ng/ml) was “+ (One character (+ or −) means a p-value between 0.05 and 0.01)”. For the same molecule, the Osteoblast differentiation ([3]; Dose 500 ng/ml) was 0, the Osteoblast differentiation ([3]; Dose 1000 ng/ml) was 0 and the Osteoblast differentiation ([3]; Dose 5000 ng/ml) was “− − −”. For the same molecule, the Osteoblast differentiation ([3]; Dose 15000 ng/ml) was “− − −” and the “Effect on osteoblast differentiation, in words” value ([3]; LA number = ng/ml lanthanum, lanthanum (III) ion = 100-15000 ng/ml, 17-estradiol 10^−10 M) was “clear dose-dependent response”.

— US7078059B2, “Treatment of bone diseases” (Shire Holdings AG, priority 2000, dated 2006)
